The subject of this test is Swiss 3T3 cells. The experiment in a line: Actin stress fibers and cell morphology, phalloidin staining. The class given is cell-based. The settings on record: peptides 25 μM, forskolin and lysophosphatidic acid 10 μM, serum 10%, 30 minutes, phalloidin stain. On the procedure:
Unless otherwise stated, all reagents were purchased from Sigma, St. Louis, Mo. Swiss Albino 3T3 fibroblasts (ATCC, Manassas, Va.) were cultured in DMEM supplemented with 10% BCS, 4 mM L-glutamine and 50 μg/ml penicillin-streptomycin and maintained at 37° C., 5% CO2. Cells were seeded and cultured overnight. Culture media was replaced with DMEM containing 0.5% BCS 1 hour prior to experimentation. Cells were incubated with the peptide analogues or reagent (LPA or forskolin) diluted in DMEM containing 0.5% BCS, 30 minutes at 37° C. Cells were then fixed in 4% paraformaldehyde, permeabilized in 0.25% Triton X-100, and blocked with 1% BSA solution for 1 hour. To determine α-actin cytoskeletal distribution, treated cells were incubated with Alexa 568 phalloidin (Molecular Probes, Eugene, Oreg.) in 1% BSA, 30 min. To determine focal adhesion protein localization, treated cells were incubated with primary monoclonal antibodies for α-actinin (1:100, Upstate, Charlottesville, Va.), vinculin (1:100, Sigma) or paxillin (1:100, BD Bioscience-Transduction Labs, San Jose, Calif.) in 1% BSA solution for 2 hours, rinsed in PBS and incubated 60 minutes with Cy3-goat IgG secondary antibody (Jackson ImmunoResearch, West Grove, Pa.). Slides were mounted and analyzed by confocal microscopy (Leica TCS SP2, Bannockburn, Ill.). […]

As to lysophosphatidic acid, the “stress fibers and cell morphology” value is given as “displayed robust stress fibers”.

These data come from US8124579B2, “Heat shock protein 20-related polypeptides and uses therefor” (Arizona Board of Regents, priority 2003, dated 2012).
